# Columns and labels:
# PHD2181-417 = PHD2181-417 (Homo sapiens (Human), UniProt Q9GZT9); assay: PHD enzymatic assay ([14C]-succinic acid production); assay type: biochemical; conditions: purified PHD2181-417, HIF-1α peptide substrate, 30 min pre-incubation; average of results
# In short: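 Recombinant human PHD2 (aa 181-417, E. coli-expressed, tags cleaved) with peptide substrate (10 μM) and [5-14C]-2-oxoglutarate in Tris pH 7.5 with catalase, DTT and ascorbate, 10 min reaction after 30 min compound pre-incubation; compounds at 100 μM final, 1% DMSO. [14C]-succinate separated by DNP precipitation and beta-counted; IC50 from three-parameter logistic fit.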
# HIF1-α, Hela cells = assay: Cellular assay for HIF1-α in Hela cells; assay type: cell-based; conditions: Homo sapiens, 100 μM compound, 6 hours, percent of HIF stimulation relative to assay control compound 7-[(4-Chloro-phenyl)-(5-methyl-isoxazol-3-ylamino)-methyl]-quinolin-8-ol
# Method: Cellular Assay for HIF1-α
# Hela cells (ATCC, Manassas, Va.) were plated in 96-well plates at 20,000 cells per well in 100 μl of DMEM containing 10% fetal bovine serum, 1% non-essential amino acids, 50 IU/mL of penicillin and 50 μg/mL of streptomycin (all cell culture reagents from Invitrogen, Carlsbad, Calif.). 24 hours after plating, changed media to 100 ul of DMEM without 10% fetal bovine serum, 1.1 μl of the stock solution for each compound was added and incubated for 6 hours. All compounds were tested with a final compound concentration of 100 μM. The supernatant was removed and the cells were lysed in 55 μl of MSD lysis buffer containing protease inhibitors. 50 μl of the cell lysate was then transferred to a blocked MSD human HIF-1α detection plate (Meso-Scale Discovery, Gaithersburg, Md., as per manufacturers protocol), and incubated at room temperature on an orbital shaker for 2 hour. After 3 washes in PBS, 25 μl of 20 nM anti-HIF1α a detection antibody was added and incubated for 1 hour at room temperature on an orbital shaker. After 3 washes in PBS, 150 μl of 1× read buffer was added and the plate was then read on a MSD SECTOR instrument. Data was analyzed by determining the percent of HIF stimulation in the presence of 100 μM compound relative to an assay control compound, 7-[(4-Chloro-phenyl)-(5-methyl-isoxazol-3-ylamino)-methyl]-quinolin-8-ol.
# PHD2181-417, sequence (Q9GZT9 181-417): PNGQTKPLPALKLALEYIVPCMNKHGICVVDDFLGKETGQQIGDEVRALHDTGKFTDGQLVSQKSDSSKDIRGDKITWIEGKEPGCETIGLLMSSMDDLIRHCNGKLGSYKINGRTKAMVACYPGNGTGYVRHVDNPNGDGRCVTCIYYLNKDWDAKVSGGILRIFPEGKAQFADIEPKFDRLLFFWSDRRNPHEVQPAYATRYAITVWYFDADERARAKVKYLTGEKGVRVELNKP
SMILES,Enzyme pIC50 (PHD2181-417),"activation at 100 µM (HIF1-α, Hela cells)"
"Nc1nc(-n2cc(C(=O)O)cn2)nc2ccc(-c3ccccc3)cc12 [Example 53, 1-(4-Amino-6-phenylquinazolin-2-yl)-1H-pyrazole-4-carboxylic acid]",7.0,16%
"O=C(O)c1cnn(-c2nc(NC3CC3)c3cc(-c4ccccc4)ccc3n2)c1 [Example 51, 1-(4-(Cyclopropylamino)-6-phenylquinazolin-2-yl)-1H-pyrazole-4-carboxylic acid]",6.5,40%
"O=C(O)c1cnn(-c2nc(N3CCSCC3)c3cc(Oc4ccc(Cl)cc4)ccc3n2)c1 [Example 67, 1-(6-(4-Chlorophenoxy)-4-thiomorpholinoquinazolin-2-yl)-1H-pyrazole-4-carboxylic acid]",7.3,31%
"CN1CCCN(c2nc(-n3cc(C(=O)O)cn3)nc3ccc(-c4ccccc4)cc23)CC1 [Example 57, 1-(4-(4-Methyl-1,4-diazepan-1-yl)-6-phenylquinazolin-2-yl)-1H-pyrazole-4-carboxylic acid]",6.4,30%
"O=C(O)c1cnn(-c2nc(Nc3ccccc3Cl)c3cc(C4CCCCC4)ccc3n2)c1 [Example 29, 1-(4-((2-Chlorophenyl)amino)-6-cyclohexylquinazolin-2-yl)-1H-pyrazole-4-carboxylic acid]",7.1,7.8%
"CC(=O)NC1CCN(c2nc(-n3cc(C(=O)O)cn3)nc3cc(F)c(Oc4c(C)cccc4C)cc23)CC1 [Example 21, 1-(4-(4-Acetamidopiperidin-1-yl)-6-(2,6-dimethylphenoxy)-7-fluoroquinazolin-2-yl)-1H-pyrazole-4-carboxylic acid]",6.9,62%
"O=C(O)c1cnn(-c2nc(N3CCCCCC3)c3cc(-c4ccccc4)ccc3n2)c1 [Example 48, 1-(4-(Azepan-1-yl)-6-phenylquinazolin-2-yl)-1H-pyrazole-4-carboxylic acid]",7.2,23%
"O=C(O)c1cnn(-c2nc(Nc3ccccc3Cl)c3cc(-c4ccccc4)ccc3n2)c1 [Example 47, 1-(4-((2-Chlorophenyl)amino)-6-phenylquinazolin-2-yl)-1H-pyrazole-4-carboxylic acid]",6.6,10%
"Cc1cccc(C)c1Oc1cc2c(N3CCC(O)CC3)nc(-n3cc(C(=O)O)cn3)nc2cc1F [Example 19, 1-(6-(2,6-Dimethylphenoxy)-7-fluoro-4-(4-hydroxypiperidin-1-yl)quinazolin-2-yl)-1H-pyrazole-4-carboxylic acid]",6.9,140%
"O=C(O)c1cnn(-c2nc(N3CCC(F)CC3)c3cc(C4CCCCC4)ccc3n2)c1 [Example 31, 1-(6-Cyclohexyl-4-(4-fluoropiperidin-1-yl)quinazolin-2-yl)-1H-pyrazole-4-carboxylic acid]",7.1,34%
"O=C(O)c1cnn(-c2nc(Nc3ccccc3)c3cc(-c4ccccc4)ccc3n2)c1 [Example 44, 1-(6-Phenyl-4-(phenylamino)quinazolin-2-yl)-1H-pyrazole-4-carboxylic acid]",7.1,22%
"O=C(O)c1cnn(-c2nc(NCC3CCCCC3)c3cc(Oc4ccc(Cl)cc4)ccc3n2)c1 [Example 64, 1-(6-(4-Chlorophenoxy)-4-((cyclohexylmethyl)amino)quinazolin-2-yl)-1H-pyrazole-4-carboxylic acid]",7.5,1.5%
"O=C(O)c1cnn(-c2nc(N3CCCC3)c3cc(-c4ccccc4)ccc3n2)c1 [Example 43, 1-(6-Phenyl-4-(pyrrolidin-1-yl)quinazolin-2-yl)-1H-pyrazole-4-carboxylic acid]",7.3,57%
"Cc1cccc(C)c1Oc1cc2c(N3CCCN(C)CC3)nc(-n3cc(C(=O)O)cn3)nc2cc1F [Example 17, 1-(6-(2,6-Dimethylphenoxy)-7-fluoro-4-(4-methyl-1,4-diazepan-1-yl)quinazolin-2-yl)-1H-pyrazole-4-carboxylic acid]",6.7,47%
"CCN(CC)c1nc(-n2cc(C(=O)O)cn2)nc2ccc(Oc3ccccc3)cc12 [Example 74, 1-(4-(Diethylamino)-6-phenoxyquinazolin-2-yl)-1H-pyrazole-4-carboxylic acid]",7.3,81%
"N#CNc1nc(-n2cc(C(=O)O)cn2)nc2ccc(-c3ccccc3)cc12 [Example 50, 1-(4-Cyanamido-6-phenylquinazolin-2-yl)-1H-pyrazole-4-carboxylic acid]",7.1,9.6%
"CS(=O)(=O)Nc1nc(-n2cc(C(=O)O)cn2)nc2ccc(C3CCCCC3)cc12 [Example 40, 1-(6-Cyclohexyl-4-(methylsulfonamido)quinazolin-2-yl)-1H-pyrazole-4-carboxylic acid]",6.6,6.7%
"N#CC1CCN(c2nc(-n3cc(C(=O)O)cn3)nc3ccc(-c4ccccc4)cc23)CC1 [Example 59, 1-(4-(4-Cyanopiperidin-1-yl)-6-phenylquinazolin-2-yl)-1H-pyrazole-4-carboxylic acid]",6.4,45%
"O=C(O)c1cnn(-c2nc(NCC3CCCCC3)c3cc(-c4ccccc4)ccc3n2)c1 [Example 49, 1-(4-((Cyclohexylmethyl)amino)-6-phenylquinazolin-2-yl)-1H-pyrazole-4-carboxylic acid]",6.9,3.8%
"CC(C)(C)Nc1nc(-n2cc(C(=O)O)cn2)nc2ccc(-c3ccccc3)cc12 [Example 52, 1-(4-(tert-Butylamino)-6-phenylquinazolin-2-yl)-1H-pyrazole-4-carboxylic acid]",6.5,37%
"CC(C)(C)Nc1nc(-n2cc(C(=O)O)cn2)nc2ccc(C3CCCCC3)cc12 [Example 36, 1-(4-(tert-Butylamino)-6-cyclohexylquinazolin-2-yl)-1H-pyrazole-4-carboxylic acid]",6.8,23%

# Now from value to molecule, other results behind:
Enzyme pIC50 (PHD2181-417),SMILES,"activation at 100 µM (HIF1-α, Hela cells)"
6.3,"O=C(O)c1cnn(-c2nc(N3CCSCC3)c3ccc(Oc4ccccc4)cc3n2)c1 [Example 90, 1-(7-Phenoxy-4-thiomorpholinoquinazolin-2-yl)-1H-pyrazole-4-carboxylic acid]",7.7%
6.3,"O=C(O)c1cnn(-c2nc(N3CCC(F)CC3)c3ccc(Oc4ccccc4)cc3n2)c1 [Example 91, 1-(4-(4-Fluoropiperidin-1-yl)-7-phenoxyquinazolin-2-yl)-1H-pyrazole-4-carboxylic acid]",18%
6.3,"O=C(O)c1cnn(-c2nc(NC3CC3)c3ccc(Oc4ccccc4)cc3n2)c1 [Example 86, 1-(4-(Cyclopropylamino)-7-phenoxyquinazolin-2-yl)-1H-pyrazole-4-carboxylic acid]",13%
6.8,"COCCN(C)c1nc(-n2cc(C(=O)O)cn2)nc2cc(Oc3ccccc3)ccc12 [Example 95, 1-(4-((2-Methoxyethyl)(methyl)amino)-7-phenoxyquinazolin-2-yl)-1H-pyrazole-4-carboxylic acid]",46%
6.3,"CC(C)(C)Nc1nc(-n2cc(C(=O)O)cn2)nc2cc(Oc3ccccc3)ccc12 [Example 99, 1-(4-(tert-Butylamino)-7-phenoxyquinazolin-2-yl)-1H-pyrazole-4-carboxylic acid]",31%
5.5,"O=C(O)c1cnn(-c2nc(N3CCCC3)c3ccc(-c4ccccc4)cc3n2)c1 [Example 81, 1-(7-Phenyl-4-(pyrrolidin-1-yl)quinazolin-2-yl)-1H-pyrazole-4-carboxylic acid]",10%
6.8,"CC(C)C1CCN(c2nc(-n3cc(C(=O)O)cn3)nc3cc(Oc4ccccc4)ccc23)CC1 [Example 85, 1-(4-(4-isopropylpiperidin-1-yl)-7-phenoxyquinazolin-2-yl)-1H-pyrazole-4-carboxylic acid]",1.7%
7.2,"CCN(C)c1nc(-n2cc(C(=O)O)cn2)nc2cc(Oc3ccccc3)ccc12 [Example 94, 1-(4-(Ethyl(methyl)amino)-7-phenoxyquinazolin-2-yl)-1H-pyrazole-4-carboxylic acid]",83%
7.1,"CCCCN(CCCC)c1nc(-n2cc(C(=O)O)cn2)nc2cc(Oc3ccccc3)ccc12 [Example 92, 1-(4-(Dibutylamino)-7-phenoxyquinazolin-2-yl)-1H-pyrazole-4-carboxylic acid]",4.1%
